# Measurements reported in patent US9320809B2, “Nanoparticle comprising hydrophobic drug conjugated to cationic polymer and hydrophilic drug conjugated to anionic polymer” (University-Industry Foundation, Yonsei University, priority 2014, dated 2016).
# Test system: Bax, Bcl-2, Bcl-xL mRNA in HuCCT1 and SCK cells
# Experiment: Expression level of apoptosis-related genes (real-time PCR)
# Assay type: cell-based
# Conditions: same amount of drugs; for change of apoptosis gene expression according to the level of expression of CD44: HuCCT1 versus SCK
# Procedure: The level of expression of an apoptosis gene of each material was compared and analyzed under the same condition as Experimental Example 4.
# Specifically, 1×10^6 HuCCT1 and SCK cells were treated with GEM, PTX, GEM+PTX, HA-GEM, PLL-PTX, HA-GEM, and MDNCs for 4 hours based on the same amount of GEM and PTX. Then, the cells were incubated in a new medium for 24 hours, and thereby the cells were obtained. Total amount of RNA with respect to all the obtained cells was obtained with an RNeasy plus mini kit (QIAGEN Gmbh), and then a concentration of total RNA was obtained using a biophotometer. Thereafter, 2 μg of complementary DNA (cDNA) with respect to the total RNA was synthesized through a high capacity RNA-to-cDNA kit (Applied Biosystems; Thermo Fisher Scientific Inc.). Quantitative analysis of the synthesized cDNA was performed using a QuantiMix SYBR Kit (PKT, Korea) in a real-time PCR system (LightCycler 480 System, HNS Bio). The quantitative analysis was performed through a reacting solution (20 μl) including cDNA (1 μl), SYBR Green mixture (10 μl), each of forward primer (1 μl) and reverse primer (1 μl), and DEPC water (7 μl). The used primers were as follows: […]
# PCR was performed at 95° C. for 5 minutes, and then genes were amplified for 45 cycles (10 seconds at 95° C., 10 seconds at 60° C., and 10 seconds at 72° C.). A relative amount of each mRNA was analyzed using a Ct method (2-ΔΔCt) based on GAPDH of each cell, from data obtained as described above.
Compound,change of apoptosis gene expression according to the level of expression of CD44,effects on apoptosis gene expression compared with MDNCs
"Nc1ccn([C@@H]2O[C@H](CO)[C@@H](O)C2(F)F)c(=O)n1 [GEM, gemcitabine]",few changes,lower than those of the MDNCs
"CC(=O)O[C@H]1C(=O)[C@@]2(C)[C@H]([C@H](OC(=O)c3ccccc3)[C@]3(O)C[C@H](OC(=O)[C@H](O)[C@@H](NC(=O)c4ccccc4)c4ccccc4)C(C)=C1C3(C)C)[C@]1(OC(C)=O)CO[C@@H]1C[C@@H]2O [PTX, paclitaxel]",few changes,lower than those of the MDNCs
